Test results taken from patent US7338454B2, “Breath test” (Children, Youth and Women's Health Service Incorporated, priority 2001, dated 2008).
Values joined by “and” are separate entries in the source; they are usually repeats but may differ in a detail not shown here. Identical values can stand only once. Marks after values point to notes of the source that are not given here.

Experiments:
small intestine [1] = experiment: Histological severity scores of jejunum and ileum in 5-FU treated rats; assay type: in vivo, rat; conditions: 5-FU 150 mg/kg i.p.
Method: (§1) Ten female Dark Agouti rats were injected intraperitoneally with 150 mg/kg 5-FU; three rats there killed at 48, 72 and four at 96 hours after 5-FU treatment. Two control rats were not treated with 5-FU. Sucrose breath tests (SBT) were undertaken before chemotherapy and prior to sacrifice by measuring released ^13CO2 in the breath after gavages of ^13C-sucrose as an indicator of small intestine (SI) sucrase function. Tissue samples were collected from SI for sucrase enzyme determinations and histological assessment from the jejunum and ileum.

Dark Agouti rats [2] = experiment: Food intake of 5-FU treated rats; assay type: in vivo, rat; conditions: 5-FU 150 mg/kg i.p.
Method: as §1

sucrase [3] = experiment: Ileal sucrase activity in 5-FU treated rats; assay type: in vivo, rat; conditions: 5-FU 150 mg/kg i.p., normal level 54.9±0.9
Method: as §1

sucrase [4] = biological target: T1, sucrase (Homo sapiens, UniProt P14410); experiment: 13C-Sucrose Breath Test in healthy adults, with and without sucrase inhibitor; assay type: in vivo; conditions: two human subjects, respectively; 200 mg acarbose with 20 g sucrose vs 20 g sucrose alone
T1 construct: from tissue; host or cells: small-intestinal brush border of living human volunteers (in vivo breath test; no isolated protein)
T1 sequence (P14410 whole entry): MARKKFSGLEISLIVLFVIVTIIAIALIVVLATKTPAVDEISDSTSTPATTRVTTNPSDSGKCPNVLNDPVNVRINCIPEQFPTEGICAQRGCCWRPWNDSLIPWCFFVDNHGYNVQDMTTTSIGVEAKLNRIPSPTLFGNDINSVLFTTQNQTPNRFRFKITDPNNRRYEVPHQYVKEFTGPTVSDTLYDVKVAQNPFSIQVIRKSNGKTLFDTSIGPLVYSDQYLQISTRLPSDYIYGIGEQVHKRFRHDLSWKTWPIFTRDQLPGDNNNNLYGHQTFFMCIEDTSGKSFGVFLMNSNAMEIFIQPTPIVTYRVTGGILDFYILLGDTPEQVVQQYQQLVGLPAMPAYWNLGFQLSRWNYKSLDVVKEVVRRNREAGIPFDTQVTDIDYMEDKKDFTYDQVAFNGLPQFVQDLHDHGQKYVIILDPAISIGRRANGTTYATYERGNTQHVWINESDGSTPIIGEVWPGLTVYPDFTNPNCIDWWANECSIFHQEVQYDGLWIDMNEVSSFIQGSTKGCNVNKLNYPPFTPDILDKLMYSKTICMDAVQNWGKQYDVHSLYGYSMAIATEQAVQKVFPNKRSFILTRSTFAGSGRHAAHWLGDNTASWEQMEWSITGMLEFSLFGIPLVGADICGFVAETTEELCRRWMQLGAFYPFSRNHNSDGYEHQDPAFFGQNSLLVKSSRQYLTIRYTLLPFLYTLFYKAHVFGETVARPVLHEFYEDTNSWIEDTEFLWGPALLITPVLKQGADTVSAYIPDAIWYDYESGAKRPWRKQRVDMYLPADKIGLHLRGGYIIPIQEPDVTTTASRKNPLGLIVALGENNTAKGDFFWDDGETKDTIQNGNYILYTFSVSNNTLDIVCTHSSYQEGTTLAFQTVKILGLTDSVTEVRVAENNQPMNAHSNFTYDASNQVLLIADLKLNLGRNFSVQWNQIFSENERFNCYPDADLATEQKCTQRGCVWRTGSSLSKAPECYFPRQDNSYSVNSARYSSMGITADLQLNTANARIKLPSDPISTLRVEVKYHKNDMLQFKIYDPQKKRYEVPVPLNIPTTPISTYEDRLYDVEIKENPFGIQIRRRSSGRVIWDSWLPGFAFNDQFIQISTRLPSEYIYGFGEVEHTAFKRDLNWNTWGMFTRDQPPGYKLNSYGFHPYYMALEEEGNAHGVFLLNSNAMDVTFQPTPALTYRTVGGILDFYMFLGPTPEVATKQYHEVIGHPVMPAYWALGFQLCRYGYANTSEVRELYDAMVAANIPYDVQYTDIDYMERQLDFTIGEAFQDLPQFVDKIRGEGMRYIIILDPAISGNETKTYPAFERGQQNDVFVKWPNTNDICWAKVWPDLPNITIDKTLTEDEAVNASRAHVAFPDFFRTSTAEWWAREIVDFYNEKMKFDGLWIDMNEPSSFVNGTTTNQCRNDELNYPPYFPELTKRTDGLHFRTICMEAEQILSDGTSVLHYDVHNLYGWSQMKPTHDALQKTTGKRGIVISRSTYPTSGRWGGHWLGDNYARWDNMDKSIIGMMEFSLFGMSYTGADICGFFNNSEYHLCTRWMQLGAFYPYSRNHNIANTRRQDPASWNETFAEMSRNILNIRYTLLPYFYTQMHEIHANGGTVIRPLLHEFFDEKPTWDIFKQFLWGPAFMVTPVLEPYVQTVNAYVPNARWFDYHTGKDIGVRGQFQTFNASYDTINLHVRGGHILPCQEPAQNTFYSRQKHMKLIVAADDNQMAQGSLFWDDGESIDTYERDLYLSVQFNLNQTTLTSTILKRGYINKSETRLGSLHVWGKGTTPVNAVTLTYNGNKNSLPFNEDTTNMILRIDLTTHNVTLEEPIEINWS
Method: Breath samples were analysed for ^13CO2 by an isotope ratio mass spectrometer (IRMS; Europa Scientific, ABCA 20/20, Crewe, United Kingdom) equipped with a V410 data collection system. Isotope ratio mass spectrometric analysis of breath samples expresses results as a delta value, representing the ratio of ^13C/^12C in the sample in parts per thousand relative to the calcium carbonate international primary standard, Pee-Dee Belemnite limestone (South Carolina, USA)(Renes et al., (1997). Baseline levels of breath ^13CO2 were determined by averaging the delta of breath samples collected prior to the ingestion of sucrose. Results from the ^13C-Sucrose Breath Test were then calculated as the change in breath ^13CO2 levels from baseline (i.e. delta over baseline: DOB) for each time point of breath collection over the period of interval sampling. The area under the “change in breath ^13CO2 level over time” curve (AUC) was calculated using the trapezoidal rule: AUC=Σ[(DOBt1+DOBt2)/2]×(t2−t1)
The study recruited 10 healthy, non-smoking adults (male n=2; female n=8) aged 19-37 years old (mean age 22+2 years) with mean weight 65.2+3 kg. Subjects had no known history of gastrointestinal or liver disease. Antibiotic and non-steroidal antiinflammatory drug use in the three weeks preceding the experiment and acute alcohol consumption the day preceding the experiment warranted exclusion. […]

Dark Agouti rats [5] = experiment: Food intake, body weight, villus height and overall mucosal damage in MTX-treated rats with or without folinate; assay type: in vivo, rat
Method: (§2) Sixteen female SPF Dark Agouti rats were housed in individual metabolism cages and were given ad libitum access to a semi-synthetic casein based diet and fresh water. Food and water intakes and body weights were measured daily. They were given two injections of MTX (1.5 mg/kg i/m) at 0 and 24 hrs. Calcium folinate was added to the drinking water of eight rats (10 mg/m^2) 2 hours prior to, and during MTX injections. Eight rats were given MTX but no folinate treatment, and four control rats were given no treatments. Four rats from each treatment group were killed at 72 hours, and the other four at 120 hours, after initial chemotherapy. SBT were undertaken before chemotherapy, and at 52 and 100 hours after initial chemotherapy.
(§3) At the appropriate times, rats were anaesthetised with halothane, cardiac blood samples collected and the animals were killed by cervical dislocation. The small intestine was emptied, flushed with chilled saline and weighed. Samples were collected into formalin from each of the proximal jejunum for histological assessment, and from the jejunum into liquid nitrogen for sucrase and myeloperoxidase determinations.

Dark Agouti rats [6] = experiment: Sucrose breath test in MTX-treated rats with or without folinate; assay type: in vivo, rat
Method: as §2
Breath ^13CO2 levels are indicative of sucrase activity in the small intestine. SBTs were undertaken before and after chemotherapy. • Rats were fasted for 3 hrs and placed in the collection chambers for 15 minutes to acclimatise and baseline samples collected into exetainers. • Rats were gavaged with 1.0 ml of a sucrose solution containing 1 g/ml of naturally enriched ^13C-sucrose. • Breath samples were collected at 30, 60 and 90 minute time intervals after gavage and analysed for ^13CO2 by isotope ratio mass spectrometry (PDZ-Europa ABCA).

sucrase [7] = experiment: Jejunal sucrase activity in MTX-treated rats with or without folinate; assay type: in vivo, rat; conditions: MTX-treated rats with folinate vs non-folinate
Method: as §2, §3
Sucrase activity was measured using a modification of the glucose oxidase method for estimation of the […] glucose concentration (Dahlqvist, 1968).

sucrase [8] = biological target: T1, sucrase; experiment: Breath hydrogen analysis in healthy adults, with and without sucrase inhibitor; assay type: in vivo; conditions: 20 g sucrose with or without 200 mg acarbose, 180 min
Method: Subjects ingested 20 g, 40 g and 60 g sucrose (AnalaR, BDH, MERCK Pty Ltd, Victoria, Australia) dissolved in 100 ml water on separate occasions. The order of these breath tests was random for each subject. To determine whether the breath test was capable of detecting inhibition of sucrase activity, two volunteers ingested 2×100 mg sucrase inhibitor (Acarbose tablets, Glucobay™) crushed and dissolved in 30 ml water, immediately followed by 20 g sucrose dissolved in 70 ml water.
All subjects were required to fast for a minimum of eight hours prior to testing and for the three hour duration of the test period. Small amounts of water were permitted 30 minutes after ingestion of the test solution. Subjects provided two baseline breath samples immediately prior to ingestion of the test solution. Following ingestion of the test solution, breath samples were collected every 15 minutes for three hours. Physical activity was avoided during the three hour experimental period, particularly at breath collection time points. End-expiratory breath samples were provided by exhaling through a straw into 5×10 ml glass tubes (Exetainer, Labco Limited, High Wycombe, England). […]
Breath samples provided by human subjects were analysed for hydrogen content by gas chromatography (Quintron, Model DP Microlyzer, E.F. Brewer Company, Wisconsin). […]

small intestine [9] = experiment: Histological severity score of small intestinal damage, methotrexate-treated rats; assay type: in vivo, rat; conditions: rats treated with methotrexate seven days earlier, n=4; median; maximum score 33
From the text: Rats were sacrificed in the afternoon of day 7 by cervical dislocation under CO2 anaesthesia. The abdomen was opened via a midline incision and the liver and gut excised. The gut contents were flushed thoroughly with phosphate buffered saline, pH 6.0. The small intestine was placed on an ice-cold slab and divided into three sections: the duodenum comprising the intestine from the gastro-duodenal junction to the ligament of Treitz; the remaining intestine from the ligament of Treitz to the caecum was divided in half to provide jejunum and ileum of equal length. A 4 cm portion was excised from each intestinal section and was rapidly frozen in liquid nitrogen, before being transferred to a −70° C. freezer until determination of sucrase activity. A further 1 cm of each section was excised and fixed in methacarn fixative for two hours, transferred to 70% ethanol for 48 hours, and embedded in paraffin wax for histological analysis (Howarth et al., (1996).
Tissue samples in paraffin wax were sectioned transversely at 21 μm, stained with haematoxylin and eosin to expose the structure of the intestinal mucosa, and examined by an under a light microscope (Howarth et al., 1996). A semi-quantitative histological assessment of intestinal damage was utilised to obtain an overall score of damage severity in the three sections of the small intestine. A severity score ranging from 0-3 was allocated for 11 histological features (table 1), such that the maximum severity score (33) indicated the most severe damage (Howarth et al., 1996).
Histological severity scores were calculated and presented as median and range. The unpaired non-parametric Mann-Whitney two-sample test was employed to compare the severity scores of the methotrexate-treated rats with controls for each section of intestine.

sucrase [10] = experiment: In vitro assay of sucrase activity in duodenum, jejunum and ileum of methotrexate-treated rats; assay type: in vivo, rat; conditions: Day 7 after methotrexate treatment, vs control, p<0.0005
From the text: Rats were sacrificed in the afternoon of day 7 by cervical dislocation under CO2 anaesthesia. The abdomen was opened via a midline incision and the liver and gut excised. The gut contents were flushed thoroughly with phosphate buffered saline, pH 6.0. The small intestine was placed on an ice-cold slab and divided into three sections: the duodenum comprising the intestine from the gastro-duodenal junction to the ligament of Treitz; the remaining intestine from the ligament of Treitz to the caecum was divided in half to provide jejunum and ileum of equal length. […]
the method of Dahlqvist (1968). […] Enzyme activity was then related to the protein concentration of the enzyme preparation as determined by the method of Bradford (1976), in which a standard curve of bovine serum albumin concentration is used to ascertain the protein content of the sample. As a result, the sucrase activity representative of duodenal, jejunal and ileal brush border membrane was determined as μ mol of substrate hydrolysed at 37° C. at pH 6.0/mg protein/hour.
Sucrase activity was expressed as specific activity relative to protein (μmol substrate hydrolysed at 37° C. at pH 6.0/mg protein/hour) and presented as mean±SEM. […] Significant difference in sucrase activity in the duodenum, jejunum and ileum of methotrexate-treated compared to control rats was detected using an unpaired t-test.

myeloperoxidase = experiment: Jejunal myeloperoxidase (MPO) in MTX-treated rats; assay type: in vivo, rat; conditions: MTX treated rats not given folinate, 72 hours
Method: as §2, §3

`O=c1[nH]cc(F)c(=O)[nH]1` [5-FU, 5-fluorouracil] was tested, and the “Histological severity score, ileum, 72 hours” value (small intestine [1]) was 12, the “Histological severity score, ileum, 96 hours” value (small intestine [1]) was 8 and the “Histological severity score, jejunum, 72 hours” value (small intestine [1]) was 8. For the same compound, the “Histological severity score, jejunum, 96 hours” value (small intestine [1]) was 5, the “Histological severity score, ileum, 48 hours” value (small intestine [1]; median) was 17 and the “Histological severity score, jejunum, 48 hours” value (small intestine [1]; median) was 13. For the same compound, the “Food intake 72 hours after injection” value (Dark Agouti rats [2]) was 4.7 ± 0.7 g, the “Food intake 96 hours after injection” value (Dark Agouti rats [2]) was 6.4 ± 0.8 g and the “Food intake 24 hours after injection” value (Dark Agouti rats [2]; before treatment 11.1±0.3 g/rat/day) was 5.3 ± 0.4 g. For the same compound, the “Ileal sucrase activity at 72 hours” value (sucrase [3]) was 7.52±0.82 nmol glucose/min/cm.
With `C[C@H]1O[C@H](O[C@H]2[C@H](O)[C@@H](O)[C@@H](O[C@H]3[C@H](O)[C@@H](O)C(O)O[C@@H]3CO)O[C@@H]2CO)[C@H](O)[C@@H](O)[C@@H]1N[C@H]1C=C(CO)[C@@H](O)[C@H](O)[C@H]1O` (stereo partly shown) [Acarbose] the “Breath 13CO2 AUC diminished in the presence of the inhibitor” value (sucrase [4]) was 57% and 93%.
With `Nc1nc(=O)c2c([nH]1)NCC(CNc1ccc(C(=O)N[C@@H](CCC(=O)[O-])C(=O)[O-])cc1)N2C=O.[Ca+2]` (stereo partly shown) [Calcium folinate] the “Damage to the small intestinal mucosa by sucrase activity, MPO levels, histological changes and sucrose breath testing” value (Dark Agouti rats [5]; MTX-treated rats) was “totally prevented damage”, the “Villus heights (structural damage)” value (Dark Agouti rats [5]; MTX-treated rats, folinate administered orally) was “structural damage was attenuated” and the “Disruption to the sucrase activity by SBT, folinate vs no folinate” value (Dark Agouti rats [6]; MTX-treated rats, p<0.0012 at 52 hours, p<0.0136 at 100 hours) was “significant decrease in disruption to the sucrase activity”. The “SBT result (breath 13CO2) 52 hrs after MTX treatment” value (Dark Agouti rats [6]; rats, MTX 1.5 mg/kg i/m at 0 and 24 hrs, calcium folinate 10 mg/m^2 in drinking water) was “attenuates mucosal damage” and the Jejunal sucrase activity (sucrase [7]) was “prevented the reduction in jejunal sucrase activity”.
In the case of `OC[C@H]1O[C@@](CO)(O[C@H]2O[C@H](CO)[C@@H](O)[C@H](O)[C@H]2O)[C@@H](O)[C@@H]1O` [Sucrose, sucrose], the “Breath Hydrogen, Subject 1, maximum change from baseline” value (sucrase [8]) is reported as 2 ppm and the “Breath Hydrogen, Subject 2, maximum change from baseline” value (sucrase [8]) is reported as 2 ppm.
For `CN(Cc1cnc2nc(N)nc(N)c2n1)c1ccc(C(=O)N[C@@H](CCC(=O)O)C(=O)O)cc1` [methotrexate], the “Severity score, duodenum” value (small intestine [9]) was 8 *, the “Severity score, ileum” value (small intestine [9]) was 6.5 * and the “Severity score, jejunum” value (small intestine [9]) was 10 *. For the same compound, the Body weights (Dark Agouti rats [5]; rats, MTX without folinate, after chemotherapy) was “decreased”, the “Reduction in food intake” value (Dark Agouti rats [5]; rats, MTX without folinate, from t0 to 96 hours after treatment) was 20% and the “Sucrase activity in duodenum, jejunum and ileum” value (sucrase [10]) was “significantly diminished in all three sections of intestine”. The “Myeloperoxidase (inflammatory marker), jejunum” value (myeloperoxidase) was “significantly higher”.
